Experiments:
[1] = test system: PGF2α-EA formation in PMA-stimulated A549 cells; assay: Oxidative metabolism of AEA in A549 cells (prostamide formation); assay type: cell-based, human; conditions: MJN228, KML110 5 and 25 μM, others 25 μM, AEA 20 μM
Procedure: The media from the PMA-stimulated cells was removed and cells were washed with DPBS (2×3 mL) before adding freshly prepared media solutions containing vehicle or compound (2 mL/plate). After incubating for 30 min at 37° C., a solution of BHT-stabilized AEA (60 μM AEA; 60 μM BHT) in the same media was added to the cells (1.0 mL/plate) and incubated for 1 h. The media from the cells was then transferred to glass vials containing MS internal standards [PGE2-EA-d4 (25 pmol)], centrifuged (1,500×g, 5 min) to remove detached cells and then loaded onto pre-equilibrated reversed phase SPE cartridges (Phenomenex, Strata-X 33 μm, 60 mg/3 mL). After washing cartridges with 5% MeOH/H2O (3 mL), prostamides were eluted with MeOH (1.0 mL) and the eluent was concentrated under a stream of N2. Concentrated samples were stored at −80° C. until the day of analysis when they were reconstituted in Mobile Phase A [100 μL, 30% CH3CN in H2O (0.1% AcOH, 5.0 mM NH4OAc)].
Media extracts were analyzed by LC/MS/MS with LC separation performed on a Kinetex reversed phase C18 column (50×4.6 mm, 2.6 μm particle size, 100Å). Mobile phase A was composed of 30% (v/v) CH3CN in H2O and Mobile phase B was composed of 50% (v/v) CH3CN in i-PrOH. Both mobile phases also contained 0.1% AcOH and NH4OAc (5 mM) to facilitate ionization and LC separation. […]
MS analysis of prostamides was performed on an Agilent 6460 Triple Quadrupole LC/MS System with operating conditions as follows: gas temperature (300° C.); gas flow (9 L·min^−1); nebulizer (45 psi); sheath gas temperature (300° C.); sheath gas flow (12 L·min^−1); positive and negative capillary voltage (3.5 kV). Analysis was achieved using multiple reaction monitoring with precursor to product ion transitions, optimized collision energies (CE) as listed below and prostamide quantification was achieved by normalized of analyte peaks relative to a deuterated prostamide internal standard (PGE2-EA-d4) to account for differences in extraction efficiency. […]

[2] = biological target: T1, humanized rat FAAH (Rattus norvegicus, UniProt P97612, A377T/F194Y/I491V/L192F/S435N/V495M); assay: FAAH activity by AEA hydrolysis, purified enzyme; assay type: biochemical; conditions: for inhibition of FAAH activity (AEA hydrolysis): 50 or 100 μM; for IC50: read-out: IC50 against purified recombinant FAAH
T1 sequence (P97612 30-579 L192F/F194Y/A377T/S435N/I491V/V495M limits assumed): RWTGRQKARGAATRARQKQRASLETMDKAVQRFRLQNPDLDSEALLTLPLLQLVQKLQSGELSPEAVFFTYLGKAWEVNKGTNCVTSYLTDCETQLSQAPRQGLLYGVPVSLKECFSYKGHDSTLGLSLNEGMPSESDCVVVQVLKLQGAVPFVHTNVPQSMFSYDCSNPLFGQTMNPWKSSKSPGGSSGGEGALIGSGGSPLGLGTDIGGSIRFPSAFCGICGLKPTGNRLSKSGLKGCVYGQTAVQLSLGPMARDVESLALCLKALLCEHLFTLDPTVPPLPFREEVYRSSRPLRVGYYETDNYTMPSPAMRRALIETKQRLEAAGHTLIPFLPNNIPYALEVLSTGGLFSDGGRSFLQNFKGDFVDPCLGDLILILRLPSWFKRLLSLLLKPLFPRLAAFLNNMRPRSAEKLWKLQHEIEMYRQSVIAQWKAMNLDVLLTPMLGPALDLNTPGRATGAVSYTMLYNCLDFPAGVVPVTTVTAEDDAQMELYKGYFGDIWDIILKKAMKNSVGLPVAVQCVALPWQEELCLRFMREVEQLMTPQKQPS
Procedure: FAAH activity was measured by AEA hydrolysis: The membrane fraction of Neuro2a lysates (200 μL, 2.0 mg/mL) was incubated with DMSO or the test compound (1.0-250 μM) at 37° C. After 15 min, AEA-d8 (25 μM) was added and the samples were incubated for an additional 30 min and then quenched by the addition of two volumes of CHCl3:MeOH (2:1) containing pentadecanoic acid (PDA) (1.0 nmol) as an internal standard. After centrifuging (2,000×g, 5 min, 4° C.) to separate the organic and aqueous layers, the lower organic layer was transferred to a clean vial and analyzed by LC/MS as previously described. (Long et al., 2009) Pure humanized rat FAAH (Mileni et al., 2008) (5.0 ng/μL) was assayed in the same manner. Product levels were quantified by determining peak areas in relation to PDA.

| SMILES | conversion of exogenous AEA to PGF2α-EA [1] | inhibition of FAAH activity (AEA hydrolysis) [2] | IC50 [2] [µM] |
| --- | --- | --- | --- |
| CN1CCN(C(=O)c2[nH]c3ccc([N+](=O)[O-])cc3c2-c2ccccc2)CC1 [MJN228, (4-Methylpiperazin-1-yl)(5-nitro-3-phenyl-1H-indol-2-yl)methanone] | suppress | do not substantially inhibit | > 100 |
| CN1CCN(C(=O)c2c(-c3ccccc3)c3cc([N+](=O)[O-])ccc3n2C)CC1 [KML110, (1-Methyl-5-nitro-3-phenyl-1H-indol-2-yl)(4-methylpiperazin-1-yl)methanone] | suppress | do not substantially inhibit | > 100 |
